For 89 compounds, vessel count % control results are on record in PubChem BioAssay AID732 (Emory University Molecular Libraries Screening Center, 2007).

The test system of the assay is in vivo angiogenesis, blood vessel count. The experiment in a line: angiogenesis inhibition in living animals, in vivo study, HTS (AID 732).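 Further: zebrafish embryos dosed at one day post fertilization; 0% = reference inhibitor and 100% = plate mean.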 As to conditions: hits give low values;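 tested at 30 µM in the well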.

Values joined by “and” are separate entries in the source; they are usually repeats but may differ in a detail not shown here. Identical values can stand only once. Active and inactive are the calls of the source. How the calls were made is not given here.

In the case of `COc1cc2c(CCNC(C)=O)c[nH]c2cc1O`, the vessel count % control is 105% (inactive).
To `CN1C[C@H](CNC(=O)OCc2ccccc2)C[C@@H]2c3cccc4c3c(cn4C)C[C@H]21` belongs 111% (inactive).
Regarding `COc1ccc(C(=O)NCc2cccnc2)cc1C(=O)NCc1cccnc1`, the vessel count % control is 109% (inactive).
To `CNCC(O)c1ccc(O)c(O)c1` (centres undefined) belongs 123% (inactive).
To `CC(=O)N1CCN(c2ccc(OC[C@H]3CO[C@](Cn4ccnc4)(c4ccc(Cl)cc4Cl)O3)cc2)CC1` belongs 113% (inactive); to `Cn1cnc2c(NC3CCCC3)ncnc21`, 95.9% (inactive).
With `[N-]=[N+]=Nc1ccc(C(=O)CSC[C@H](NC(=O)CC[C@H](N)C(=O)O)C(=O)NCC(=O)O)cc1`, the vessel count % control was 91.6% (inactive).
To `CN1C2CC(OC(=O)[C@H](CO)c3ccccc3)CC1C1OC12` (some centres undefined) belongs 79.7% (inactive); to `O=C(O)/C=C/c1cnc[nH]1`, 108% (inactive); to `CN(N=O)c1ccc(O)c(O)c1`, 96.8% (inactive).
To `Cc1ccc2[nH]c(O)c(-c3[nH]c4ccc(Br)cc4c3N=O)c2c1` belongs 33.9%; to `CN(C)C(=O)Oc1ccc[n+](C)c1`, 110% (inactive).
In the case of `CCCN1CC[C@@H]2c3cc(O)ccc3CC[C@@H]21`, the vessel count % control is 88.5% (inactive) and 103% (inactive).
Turning to `CCCc1c(OCCCOc2ccc(OCC(=O)O)cc2)ccc(C(C)=O)c1O`, the vessel count % control was 92.9% (inactive).
To `COc1ccc2[nH]c3c(c2c1)CCNC3` belongs 137% (inactive).
For `CCCCCCCCCCCCCCCCOCC(COCC(F)(F)F)OP(=O)(O)OCO` (centres undefined), the vessel count % control was 109% (inactive).
The result for `CCCN(CCC)CCc1c[nH]c2ccc(C(N)=O)cc12` reads 80.1% (inactive); that for `c1ccc(-c2ccccn2)nc1`, 109% (inactive); that for `CCCCCCCCCCCCCCCC(=O)NCCO`, 96.1% (inactive).
In the case of `NC(N)=[N+]1CCc2ccccc2C1`, the vessel count % control is 113% (inactive).
The result for `COC(=O)c1c(-c2cc(OC)c(OC)c(OC)c2)c2ccc(OCc3ccccn3)cc2c(=O)n1-c1ccc(N)cc1` reads 109% (inactive); that for `c1ccc2c(N3CCNCC3)cccc2c1`, 97.1% (inactive); that for `CC(COc1ccccc1)N(CCCl)Cc1ccccc1` (centres undefined), 139% (inactive).
For `O=C(O)c1cc2cc(F)ccc2[nH]1`, the vessel count % control is 104% (inactive).
As for `NC(N)=NCCC[C@H](N)C(=O)O`, the vessel count % control was 94.3% (inactive).
Turning to `CNCC(O)c1ccc(O)cc1` (centres undefined), the vessel count % control is 131% (inactive).
To `CCCCS(=N)(=O)CC[C@H](N)C(=O)O` (some centres undefined) belongs 93% (inactive).
Consider `CN(C(=O)CCCOc1ccc2[nH]c(=O)ccc2c1)C1CCCCC1`, for which the vessel count % control is 94.5% (inactive).
Take `O=C(O)Cc1ccc(O)c(O)c1`: the vessel count % control was 107% (inactive).
Consider `NC[C@@H]1O[C@H](C23CC4CC(CC(C4)C2)C3)Cc2c1ccc(O)c2O`, for which the vessel count % control was 110% (inactive).
Take `NCCCCCCCCCCN`: the vessel count % control is 146% (inactive).
`C[C@]12CCC3C(CC[C@H]4C[C@H](O)CC[C@]34C)C1CC[C@@H]2C(=O)CO` (some centres undefined): the vessel count % control was 105% (inactive).
In the case of `Oc1[nH]c2c(Cl)cc(Cl)cc2c1C1=Nc2ccc(Br)cc2/C1=N\OCCN1CCCC1`, the vessel count % control is 93.4% (inactive).
`O=C1C(c2c(O)[nH]c3ccc(F)cc23)=Nc2ccccc21`: the vessel count % control was 59% (inactive).
To `NC1CC1c1ccccc1` (centres undefined) belongs 94.1% (inactive); to `CC(C)COCC(CN(Cc1ccccc1)c1ccccc1)N1CCCC1` (centres undefined), 104% (inactive); to `CC(=O)[C@H]1CCC2C3CC[C@H]4C[C@H](O)CC[C@]4(C)C3CC[C@@]21C` (some centres undefined), 68.7% (inactive).
To `CC(C)(Oc1ccc(C2CC2(Cl)Cl)cc1)C(=O)O` (centres undefined) belongs 96.9% (inactive).
To `COc1ccc2c(c1)c(CC(=O)O)c(C)n2C(=O)c1ccc(Cl)cc1` belongs 112% (inactive).
Consider `C=C1C(=O)O[C@@H]2[C@H]3O[C@]3(C)CCC=C(C)CC[C@@H]12`, for which the vessel count % control is 92.5% (inactive).
Take `C[C@H](Cc1ccc2c(c1)OC(C(=O)O)(C(=O)O)O2)NC[C@H](O)c1cccc(Cl)c1`: the vessel count % control was 98.2% (inactive).
The result for `O=C1CC2(CCCC2)CC(=O)N1CCCCN1CCN(c2ncccn2)CC1` reads 114% (inactive).
To `COc1cccc(C(=O)NCCN2CCN(c3ccc(Cl)cc3)CC2)c1` belongs 66.6% (inactive); to `CN(C)C/C=C(/c1ccc(Br)cc1)c1cccnc1`, 104% (inactive).
For `Cn1cc(C(F)(F)F)nc1-c1ccc(OCC(O)CNCCOc2ccc(O)c(C(N)=O)c2)cc1` (centres undefined), the vessel count % control was 82.4% (inactive).
`CNC[C@H](O)c1cccc(O)c1`: the vessel count % control was 109% (inactive).
The result for `NC1(C(=O)O)CC1` reads 127% (inactive); that for `C/C=C1\C(=O)CC2C3CCC4=CC(=O)CC[C@]4(C)C3CC[C@]12C` (some centres undefined), 102% (inactive); that for `CC1=C(/C=C/C(C)=C/C=C/C(C)=C\C(=O)O)C(C)(C)CCC1`, 76.1% (inactive).
For the compound `OC[C@H]1O[C@@H](n2cnc3c(Nc4ccccc4)ncnc32)C(O)[C@H]1O` (some centres undefined), the vessel count % control is 110% (inactive).
Turning to `CC(C)(O)[C@@H]1[C@H]2OC(=O)[C@@H]1[C@]1(O)C[C@H]3O[C@]34C(=O)O[C@H]2[C@]14C` (tested in a mixture with another compound), the vessel count % control is 116% (inactive).
As to `NCCSSCCN`, the vessel count % control is 118% (inactive).
The result for `COCc1nc2c([nH]1)c(=O)n(C)c(=O)n2CC(C)C` reads 93% (inactive); that for `NC(C(=O)O)c1cc(=O)[nH]o1` (centres undefined), 134% (inactive); that for `O=c1[nH]c2ccccc2c2ccccc12`, 103% (inactive).
For `S=C(NC1CCCCC1)N1CCC(c2cnc[nH]2)CC1`, the vessel count % control was 129% (inactive).
For `CC(C)(C)c1onc(OCP(=O)(O)O)c1CC(N)C(=O)O` (centres undefined), the vessel count % control was 88.9% (inactive).
The result for `CN(C)c1nc(N)c(C(=O)N=C(N)N)nc1Cl` reads 106% (inactive); that for `CCCn1cnc2c1c(=O)n(CCCCC(C)=O)c(=O)n2C`, 107% (inactive).
With `CCn1c(=O)c2[nH]c(-c3ccccc3)nc2n(CC)c1=O`, the vessel count % control was 63.2% (inactive).
As for `Oc1ccc2c3c1O[C@H]1c4[nH]c5c(c4C[C@@]4(O)[C@@H](C2)N(CC2CC2)CC[C@]314)C[C@@]1(O)[C@H]2Cc3ccc(O)c4c3[C@@]1(CCN2CC1CC1)[C@H]5O4`, the vessel count % control is 81.2% (inactive).
Turning to `N#CC(C#N)=Cc1ccc([N+](=O)[O-])c(O)c1`, the vessel count % control was 88.6% (inactive).
To `c1ccc2cc(CC3=NCCN3)ccc2c1` belongs 120% (inactive); to `CC(C)NCC(O)c1cc(O)cc(O)c1` (centres undefined), 91.8% (inactive); to `CN(C)CCC(c1ccccc1)c1ccccn1` (centres undefined), 109% (inactive).
The result for `Fc1ccc(C(OCCCc2cnc[nH]2)c2ccc(F)cc2)cc1` reads 89.2% (inactive); that for `CC(C)N(CCC(C(N)=O)(c1ccccc1)c1ccccn1)C(C)C` (centres undefined), 99.1% (inactive) and 109% (inactive); that for `COC[C@H]1OC(=O)c2coc3c2[C@@]1(C)C1=C(C3=O)C2CCC(=O)[C@@]2(C)C[C@H]1OC(C)=O` (some centres undefined), 0% (inactive).
In the case of `CCN(CC)CCCCCCCCOC(=O)c1cc(OC)c(OC)c(OC)c1`, the vessel count % control is 91.4% (inactive).
The result for `CC(=O)OC(C)C[N+](C)(C)C` (centres undefined) reads 85.5% (inactive); that for `CCCCOc1cc(CC2CNC(=O)N2)ccc1OC` (centres undefined), 106% (inactive).
To `O=C(O)/C=C/c1ccc(O)c(O)c1` belongs 108% (inactive); to `CN(C)CC[C@@H](c1ccc(Br)cc1)c1ccccn1`, 102% (inactive); to `O=C(O)[C@@H]1CCN1`, 84.3% (inactive).
To `CSC(=N)N` belongs 68.6% (inactive); to `CC(C)Cn1c(=O)n(C)c(=O)c2[nH]cnc21`, 78.7% (inactive); to `CP(=O)(O)C1=CCNCC1`, 116% (inactive).
For the compound `N#Cc1c(-c2ccccc2)no[n+]1[O-]`, the vessel count % control is 120% (inactive).
Take `O=C(O)C1C2CCC(O2)C1C(=O)O` (centres undefined): the vessel count % control was 98.3% (inactive).
Consider `C1CCc2nnnn2CC1`, for which the vessel count % control was 79% (inactive).
To `NCCNC(=O)c1ccc(Cl)cc1` belongs 106% (inactive); to `CN(C)CCC(c1ccc(Br)cc1)c1ccccn1` (centres undefined), 92.3% (inactive).
To `CC(C)NC(C)Cc1ccc(I)cc1` (centres undefined) belongs 109% (inactive).
`N=C(N)c1ccc(OCCCCCOc2ccc(C(=N)N)cc2)cc1` (tested in a mixture with another compound): the vessel count % control was 99.1% (inactive).
To `O=Nc1c(-c2c(O)[nH]c3ccc(S(=O)(=O)O)cc23)[nH]c2ccccc12` belongs 92.9% (inactive); to `C=C(C)[C@H]1Cc2c(ccc3c2O[C@@H]2COc4cc(OC)c(OC)cc4[C@@H]2C3=O)O1`, 0% (inactive).
To `Cc1nc2n(c(=O)c1CCN1CCC(c3noc4cc(F)ccc34)CC1)CCCC2` belongs 104% (inactive); to `O=c1[nH]c(=O)n([C@H]2C[C@H](O)[C@@H](CO)O2)cc1Br`, 105% (inactive).
`C=C[C@H]1CN2CCC1C[C@@H]2[C@@H](O)c1ccnc2ccc(OC)cc12` (some centres undefined): the vessel count % control was 149% (inactive).
